Reference: patent US20240246950A1, “Anilino-Pyrazole Derivatives, Compositions and Methods Thereof” (Ensem Therapeutics, priority 2022, published 2024)
pIC50: −log10 of the molar value. Like-named read-outs stand apart in the source and are kept apart here.

Columns and labels:
CDK1/cyclinB = CDK1/cyclinB (Homo sapiens, UniProt P06493); experiment: In vitro kinase TR-FRET assay CDK1/cyclinB; format: biochemical; conditions: enzyme 0.3 nM, ATP 56 μM
Description: (§1) In vitro kinase TR-FRET assays: CDK2/CycA2, CDK2/CycE1, CDK1/cyclinB and GSK3β
(§2) The test compounds were prepared as 10 mM stock solution in 100% DMSO. The stock solution was then serially diluted 3-fold in 100% DMSO to 10 concentrations. 200 nL of each diluted compound solution was transferred to 384-well plate in duplicate. To each well, 5 uL of enzyme and ATP mixture solution containing enzyme CDK2/CycA2, CDK2/CycE1, CDK1/cyclinB, or GSK30 (final concentrations 3 nM, 0.6 nM, 0.3 nM, 0.6 nM, respectively) and ATP (final concentrations 27 μM, 82 μM, 56 μM, 7.6 μM, respectively) in the assay buffer (50 mM HEPES, pH7.5, 10 mM MgCl2, 1 mM DTT, 0.01% BSA, 0.01% Triton X-100). For negative control, 5 uL of assay buffer was added instead. The plate was incubated at room temperature for 10 min. 5 uL of peptide solution containing ULight-4E-BP1 peptide (final concentrations 50 nM) in the assay buffer was subsequently added into each well to initiate the reaction. By incubation at room temperature for 1 hour, 10 uL of 2 nM Eu-anti-phospho-4E BP1 antibody was then added for detection. After one hour incubation at room temperature, all samples were subjected to read the TR-FRET signal on Envision with excitation at 340 nm and emission fluorescence at 615 nm and 665 nm. IC50 values were then calculated by plotting dose-response curves and then using the XLfit application in Excel software.

CDK2/CycA2 = CDK2/CycA2 (Homo sapiens, UniProt P24941); experiment: In vitro kinase TR-FRET assay CDK2/CycA2; format: biochemical; conditions: enzyme 3 nM, ATP 27 μM, read-out: CDK2 cyclinA2 activity assay: IC50
Description: as §1, §2

CDK2/CycE1 = CDK2/CycE1 (Homo sapiens, UniProt P24941); experiment: In vitro kinase TR-FRET assay CDK2/CycE1; format: biochemical; conditions: enzyme 0.6 nM, ATP 82 μM, read-out: CDK2 cyclinE1 activity assay: IC50
Description: as §1, §2

GSK3β = GSK3β (Homo sapiens, UniProt P49841); experiment: In vitro kinase TR-FRET assay GSK3β; format: biochemical; conditions: enzyme 0.6 nM, ATP 7.6 μM
Description: as §1, §2

OVCAR3 = experiment: Cell proliferation (CyQUANT) OVCAR3; format: cell-based; conditions: OVCAR3, 7 days, read-out: Anti-proliferation assay: IC50 (nM) [Cell Line: OVCAR3]
Description: (§3) Cancer cell lines, namely, OVCAR3, TOV21G were seeded onto 96 well cell culture plates at a density of 2500, 1000 or 3000 cells/well, respectively and cultured overnight. Cells treated with test compounds at 3-fold dose titration for 7 days at maximum final DMSO concentration of 0.01%. The CyQUANT® Cell Proliferation Assay, a highly sensitive fluorescence-based method for quantifying cells and assessing cell proliferation and cytotoxicity was employed, following manufacturer's procedure (ThermnoFisher, Cataloge #C35012). Plates were scanned with a laser-based Acumen Cellistra instrument by TTP LabTech at Ex/Em 480/520 nm. % Inhibition is calculated based on DMSO control wells on the same plate (ie, DMSO wells have 100% growth and 0% growth inhibition).

TOV21G = experiment: Cell proliferation (CyQUANT) TOV21G; format: cell-based; conditions: 7 days, read-out: Anti-proliferation assay: IC50 (nM) [Cell Line: TOV21G]
Description: as §3

CDK1/cyclinB, sequence (P06493 whole entry): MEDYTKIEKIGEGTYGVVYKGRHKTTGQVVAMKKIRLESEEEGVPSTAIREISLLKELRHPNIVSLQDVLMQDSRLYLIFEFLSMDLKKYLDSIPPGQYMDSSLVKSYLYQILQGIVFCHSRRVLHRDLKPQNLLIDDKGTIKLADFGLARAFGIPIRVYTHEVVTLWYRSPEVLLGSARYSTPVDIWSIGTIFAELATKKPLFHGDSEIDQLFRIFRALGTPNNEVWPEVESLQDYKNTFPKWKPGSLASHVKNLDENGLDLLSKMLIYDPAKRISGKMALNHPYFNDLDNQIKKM
CDK1/cyclinB, sequence (P14635 whole entry partner): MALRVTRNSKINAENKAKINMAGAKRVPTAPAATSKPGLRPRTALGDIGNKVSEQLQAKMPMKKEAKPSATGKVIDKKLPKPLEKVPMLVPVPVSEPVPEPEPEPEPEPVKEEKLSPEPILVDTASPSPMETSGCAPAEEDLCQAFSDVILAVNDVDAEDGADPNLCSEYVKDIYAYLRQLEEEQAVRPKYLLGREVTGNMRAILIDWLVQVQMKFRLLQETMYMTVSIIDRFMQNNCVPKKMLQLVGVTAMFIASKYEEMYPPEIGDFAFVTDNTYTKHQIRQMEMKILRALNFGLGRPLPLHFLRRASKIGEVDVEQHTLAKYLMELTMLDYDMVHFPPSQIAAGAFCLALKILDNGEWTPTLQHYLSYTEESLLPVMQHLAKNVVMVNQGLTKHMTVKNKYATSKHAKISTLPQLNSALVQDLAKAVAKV
GSK3β, sequence (P49841 whole entry, species assumed): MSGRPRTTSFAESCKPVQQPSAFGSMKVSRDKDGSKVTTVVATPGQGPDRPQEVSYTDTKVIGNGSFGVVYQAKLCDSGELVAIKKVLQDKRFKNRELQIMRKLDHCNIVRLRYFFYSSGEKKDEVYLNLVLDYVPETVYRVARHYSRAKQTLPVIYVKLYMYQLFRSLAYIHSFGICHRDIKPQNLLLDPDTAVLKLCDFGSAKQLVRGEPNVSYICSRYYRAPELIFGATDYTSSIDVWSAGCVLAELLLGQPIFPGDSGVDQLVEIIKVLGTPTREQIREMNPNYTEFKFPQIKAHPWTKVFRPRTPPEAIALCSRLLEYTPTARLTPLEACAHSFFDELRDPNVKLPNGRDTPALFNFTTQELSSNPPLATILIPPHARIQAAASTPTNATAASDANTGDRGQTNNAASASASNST

| SMILES | pIC50 (CDK1/cyclinB) | pIC50 (CDK2/CycA2) | pIC50 (CDK2/CycE1) | pIC50 (GSK3β) | IC50 (OVCAR3) [nM] | IC50 (TOV21G) [nM] | IC50 (OVCAR3; Homo sapiens, OVCAR-3, 168 h) [nM] | IC50 (TOV21G; Homo sapiens, 168 h) [nM] |
| --- | --- | --- | --- | --- | --- | --- | --- | --- |
| CC(C)NC(=O)O[C@@H]1CC[C@H](c2cc(Nc3ccc4c(c3)N(C)CNS4(=O)=O)n[nH]2)C1 [Example 12, (1R,3S)-3-{3-[(4-methyl-1,1-dioxo-3,4-dihydro-2H-1λ^6,2,4-benzothiadiazin-6-yl)amino]-1H-pyrazol-5-yl}cyclopentyl N-(propan-2-yl)carbamate] | > 7.30 | > 7.30 | > 7.30 | 6.30 to 7.30 | ≤ 500 | ≥ 1000 | – | – |
| COC1CS(=O)(=O)c2ccc(Nc3cc([C@H]4CC[C@@H](OC(=O)NC(C)C)C4)n[nH]3)cc21 (stereo partly drawn) [Example 15, (1R,3S)-3-{5-[(3-methoxy-1,1-dioxo-2,3-dihydro-1λ^6-benzothiophen-5-yl)amino]-2H-pyrazol-3-yl}cyclopentyl (prop-2-ylamino)methanoate] | 6.30 to 7.30 | > 7.30 | > 7.30 | 6.30 to 7.30 | – | – | ≤ 500 | ≥ 1000 |
| CC(C)NC(=O)O[C@@H]1CC[C@H](c2cc(Nc3ccc4c(c3)S(=O)(=O)NC4)n[nH]2)C1 [Example 17, (1R,3S)-3-(3-((1,1-dioxido-2,3-dihydrobenzo[d]isothiazol-6-yl)amino)-1H-pyrazol-5-yl)cyclopentyl isopropylcarbamate] | > 7.30 | > 7.30 | > 7.30 | 6.30 to 7.30 | – | – | ≤ 500 | ≤ 500 |
| CC(C)NC(=O)O[C@@H]1CC[C@H](c2cc(Nc3ccc4c(c3)S(=O)(=O)CC4)n[nH]2)C1 [Example 19, (1R,3S)-3-(3-((1,1-dioxido-2,3-dihydrobenzo[b]thiophen-6-yl)amino)-1H-pyrazol-5-yl)cyclopentyl isopropylcarbamate] | 6.30 to 7.30 | > 7.30 | > 7.30 | 6.30 to 7.30 | – | – | ≤ 500 | ≤ 500 |
| CC(C)NC(=O)O[C@@H]1CC[C@H](c2cc(Nc3ccc4c(c3)C(C)(C)CS4(=O)=O)n[nH]2)C1 [Example 21, (1R,3S)-3-{5-[(3,3-dimethyl-1,1-dioxo-2,3-dihydro-1λ^6-benzothiophen-5-yl)amino]-2H-pyrazol-3-yl}cyclopentyl (prop-2-ylamino)methanoate] | 6.30 to 7.30 | > 7.30 | > 7.30 | 6.30 to 7.30 | – | – | 500 to 1000 | ≥ 1000 |
| CC(C)NC(=O)O[C@@H]1CC[C@H](c2cc(Nc3ccc4c(c3)CS(=O)(=O)C4)n[nH]2)C1 [Example 22, (1R,3S)-3-(3-((2,2-dioxido-1,3-dihydrobenzo[c]thiophen-5-yl)amino)-1H-pyrazol-5-yl)cyclopentyl isopropylcarbamate] | > 7.30 | > 7.30 | > 7.30 | 6.00 to 6.30 | – | – | ≤ 500 | ≤ 500 |
| CC(C)NC(=O)O[C@@H]1CC[C@H](c2cc(Nc3ccc4c(c3)CCC4=O)n[nH]2)C1 [Example 25, (1R,3S)-3-{5-[(1-oxo-2,3-dihydro-1H-inden-5-yl)amino]-2H-pyrazol-3-yl}cyclopentyl (prop-2-ylamino)methanoate] | 6.30 to 7.30 | > 7.30 | > 7.30 | 6.30 to 7.30 | – | – | ≤ 500 | ≥ 1000 |
| CC(C)NC(=O)O[C@@H]1CC[C@H](c2cc(Nc3ccc4c(c3)CCCS4(=O)=O)n[nH]2)C1 [Example 26, (1R,3S)-3-(3-((1,1-dioxidothiochroman-6-yl)amino)-1H-pyrazol-5-yl)cyclopentyl isopropylcarbamate] | 6.30 to 7.30 | > 7.30 | > 7.30 | 6.30 to 7.30 | – | – | ≤ 500 | ≥ 1000 |
| CC(C)NC(=O)O[C@H]1CC[C@@H](c2cc(Nc3ccc4c(c3)S(=O)(=O)CC4)n[nH]2)CC1 [Example 27, (1s,4s)-4-{5-[(1,1-dioxo-2,3-dihydro-1λ^6-benzo[b]thiophen-6-yl)amino]-2H-pyrazol-3-yl}cyclohexyl (prop-2-ylamino)methanoate] | 6.30 to 7.30 | > 7.30 | > 7.30 | < 6.00 | – | – | ≥ 1000 | ≥ 1000 |
| CC(C)NC(=O)O[C@H]1C[C@@H](c2cc(Nc3ccc4c(c3)CS(=O)(=O)C4)n[nH]2)C1 [Example 28, (1s,3s)-3-(3-((2,2-dioxido-1,3-dihydrobenzo[c]thiophen-5-yl)amino)-1H-pyrazol-5-yl)cyclobutyl isopropylcarbamate] | > 7.30 | > 7.30 | > 7.30 | 6.30 to 7.30 | – | – | ≤ 500 | ≤ 500 |
| CC(C)NC(=O)O[C@@H]1CC[C@H](c2cc(Nc3ccc4c(c3)CCC4C#N)n[nH]2)C1 (stereo partly drawn) [Example 29, (1R,3S)-3-{5-[(1-cyano-2,3-dihydro-1H-inden-5-yl)amino]-2H-pyrazol-3-yl}cyclopentyl (prop-2-ylamino)methanoate] | 6.30 to 7.30 | > 7.30 | > 7.30 | 6.30 to 7.30 | – | – | 500 to 1000 | ≥ 1000 |
| CC(C)NC(=O)O[C@@H]1CC[C@H](c2cc(Nc3ccc4c(c3)CCC(=O)N4)[nH]n2)C1 [Example 30, (1R,3S)-3-{5-[(2-oxo-1,2,3,4-tetrahydroquinolin-6-yl)amino]-1H-pyrazol-3-yl}cyclopentyl (prop-2-ylamino)methanoate] | 6.30 to 7.30 | > 7.30 | > 7.30 | < 6.00 | – | – | 500 to 1000 | ≥ 1000 |
| CC(C)NC(=O)O[C@@H]1CC[C@H](c2cc(Nc3ccc4c(c3)C(C#N)CC4)n[nH]2)C1 (stereo partly drawn) [Example 31, (1R,3S)-3-{5-[(3-cyano-2,3-dihydro-1H-inden-5-yl)amino]-2H-pyrazol-3-yl}cyclopentyl (prop-2-ylamino)methanoate] | 6.30 to 7.30 | > 7.30 | > 7.30 | 6.30 to 7.30 | – | – | ≤ 500 | ≤ 500 |
| CC(C)NC(=O)O[C@@H]1CC[C@H](c2cc(Nc3ccc4c(c3)CC(F)(F)C4)n[nH]2)C1 [Example 32, (1R,3S)-3-(3-((2,2-difluoro-2,3-dihydro-1H-inden-5-yl)amino)-1H-pyrazol-5-yl)cyclopentyl isopropylcarbamate] | 6.30 to 7.30 | > 7.30 | > 7.30 | 6.00 to 6.30 | – | – | ≤ 500 | ≥ 1000 |
| CC(C)NC(=O)O[C@H]1CC[C@@H](c2cc(Nc3ccc4c(c3)CS(=O)(=O)C4)n[nH]2)CC1 [Example 33, (1s,4s)-4-(3-((2,2-dioxido-1,3-dihydrobenzo[c]thiophen-5-yl)amino)-1H-pyrazol-5-yl)cyclohexyl isopropylcarbamate] | > 7.30 | > 7.30 | > 7.30 | < 6.00 | – | – | ≤ 500 | ≤ 500 |
| CC(C)NC(=O)O[C@@H]1CC[C@H](c2cc(Nc3ccc4c(c3)oc(=O)n4C)n[nH]2)C1 [Example 34, (1R,3S)-3-{5-[(3-methyl-2-oxobenzo[d][1,3]oxazol-6-yl)amino]-2H-pyrazol-3-yl}cyclopentyl (prop-2-ylamino)methanoate] | 6.30 to 7.30 | > 7.30 | > 7.30 | 6.00 to 6.30 | – | – | 500 to 1000 | ≥ 1000 |
| CC(C)NC(=O)O[C@@H]1CC[C@H](c2cc(Nc3cccc4c3CCS4(=O)=O)n[nH]2)C1 [Example 36, (1R,3S)-3-(3-((1,1-dioxido-2,3-dihydrobenzo[b]thiophen-4-yl)amino)-1H-pyrazol-5-yl)cyclopentyl isopropylcarbamate] | 6.30 to 7.30 | > 7.30 | > 7.30 | 6.30 to 7.30 | – | – | ≤ 500 | ≤ 500 |
